According to patent US20070292478A1 (priority 2004, published 2007):

What was measured:
tumour = assay: local delivery of rhodamine on an implant; format: in vivo; details: delivering 40 or 50 mg locally on implant
Source text: Furthermore, the lethal dose can be greatly exceeded. […] Such a dose, delivered systemically, would require 100 g of rhodamine, more than 1000 times the lethal dose.

[1] = maximal tolerated dose of Rhodamine 123 delivered intravenously in man; format: in vivo; details: 70 kg patient, each injection
Protocol: Because inhibitors of oxidative phosphorylation are toxic to a subject in the doses needed for efficacy via the systemic route, such inhibitors have been largely overlooked for effective treatment of conditions such as cancer. […] It is also known that the maximal tolerated dose of Rhodamine 123 delivered intravenously in man is 95 mg/m^2. For a 70 kg patient, the tolerated dose of systemically delivered rhodamine is about 150 mg for each injection.

prostate tumours = details: clinical trial, cited from earlier work

Substance: rhodamine
- tumour outcome (tumour): leads to tumour death
- tolerated dose of systemically delivered rhodamine [1]: about 150 mg
- effect on prostate tumours (prostate tumours; maximum non-lethal systemic doses): did not shown any significant effect
- accumulation in the prostate of the patients (prostate tumours; systemic delivery): accumulation was confirmed
